Values after ≈ are worked out from the molar mass of the structure shown. Values joined by “and” are separate entries in the source; they are usually repeats but may differ in a detail not shown here. Identical values can stand only once. Like-named read-outs stand apart in the source and are kept apart here.
Legend:
Cal27 cells = assay: Cytotoxicity assay (Cell Counting Kit-8); format: cell-based; details: Homo sapiens, CAL-27, 48 h
Description: (§1) Normal oral keratinocytes (NOK) (kindly gifted by Dr. Karl Mugner, Tuffs University, Boston, MA, USA) were maintained in Keratinocyte SFM medium supplemented with EGF and bovine pituitary extract (GIBCO, Life Technologies, Berkeley, MO, USA) and 1% penicillin/ streptomycin. HNC cell line Cal27 was purchased from the ATCC. JHU029 (JHU-29) and JHU022 (JHU-22) cell lines were procured from the Johns Hopkins University (Baltimore, MD, USA). The Cal27 and JHU022 cells were maintained in Dulbecco’s Modified Eagle Medium (DMEM), and JHU029 cells were in RPMI1640 (Sigma, St. Louis, MO, USA) media supplemented with 10% FBS and 1% penicillin/ streptomycin (Sigma-Aldrich, St. Louis, MO, USA) in a humidified CO2 incubator. The cell lines are routinely tested in our laboratory to rule out mycoplasma contamination using a commercial MycoAlert™ Mycoplasma Detection kit (Lonza, Morrisville, NC, USA). Cal27 cells are tongue origin and JHU022 and JHU029 cells are from laryngx origin.
(§2) Cal27, JHU029, JHU022 and NOK were seeded in 96 well-plate (5000 cells/well) and cells were treated with different concentration of M-I for 48 h. There were untreated control and DMSO treated vehicle control group for comparison. Cytotoxicity assay was performed using Cell Counting Kit-8 (Dojindo Molecular Technology, Rockville, MD, USA) according to manufacturer instruction.

JHU029 cells = assay: Cytotoxicity assay (Cell Counting Kit-8); format: cell-based; details: Homo sapiens, 48 h
Description: as §1, §2

[1] = system: human normal oral keratinocytes (NOK); assay: Cytotoxicity assay (Cell Counting Kit-8); format: cell-based; details: 48 h
Description: as §1, §2

JHU022 cells = assay: Cytotoxicity assay (Cell Counting Kit-8); format: cell-based; details: Homo sapiens, 48 h
Description: as §1, §2

[2] = Pharmacokinetic study, single dose IP or oral gavage; format: in vivo, C57Bl/6 male mice; details: for AUC(0-t) / Tmax / AUC(0-inf) / Cmax / half-life: male, C57Bl/6, mouse; for AUC(0-inf): read-out: AUCINF_obs (converted); for Cmax / half-life: 20 mg/kg; for half-life: read-out: T½ (elimination half-life) (converted)
Description: To evaluate the pharmacokinetic (PK) profile of M-I, a single dose (20 mg/kg) was given to C57Bl/6 male mice by either intraperitoneal injection (IP group; n = 3) or oral ga-vage (oral group; n = 3). A dose of 20 mg/kg was chosen based on previous publications. The average plasma concentration ± standard deviation at each time point is shown in Figure 5A and corresponding PK parameters are summarized in Table 2. M-I was rapidly absorbed with a maximum plasma concentration 1 h post-IP and PO dose. […] The observed elimination half-life was 0.9 h in the IP group and 2 h in the PO group. The oral group had loose stool, starting four hours post-dose, which had not re-solved by 8 h but all mice appeared normal after twenty-four hours. […] We therefore selected IP administration of M-I for subsequence studies.
The pharmacokinetic (PK) study of M-I was performed in male C57Bl/6 mice. A sin-gle dose of M-I (formulated at 2 mg/mL dissolved in 5% DMSO/95% of a 30% w:v Captisol solution) was administered either by intraperitoneal injection (IP group, n = 3) or oral ga-vage (PO group, n = 3). After dosing, 20 µL blood samples were collected into heparin pre-coated tubes at 5 min, 15 min, 30 min, 1 h, 2 h, 4 h, 6 h, 8 h and 24 h. Samples were centrifuged, and the plasma collected. M-I concentration was determined using liq-uid chromatography-mass spectrometry/mass spectrometry (LC-MS/MS) as described earlier.

rat cardiac fibroblasts = details: cited from earlier work
JHU029 xenograft = assay: Tumorigenicity assay, HNC xenograft model; format: in vivo, BALB/c athymic nude mice
Description: Figure 6 Therapeutic effect of momordicine-I in JHU029 xenograft model. JHU029 cells (1.5 × 10^6) cells were injected subcutaneously into the flank of nude mice. After the formation of a palpable tumor, mice were randomly divided into three groups (n = 5): Control (without any treatment), BME group (30% BME through drinking water) and M-I group (30 mg/kg IP, once in a day and every day). (A) Body weight was measured in control and treated mice. (B) Representative images of tumors in control and treatment groups. (C) Tumors were measured using a slide caliper and tumor volumes were calculated. Arrow indicates starting point BME/M-I treatment. (D) Control or treated tumor lysates were subjected to Western blot analysis for c-Met and c-Myc expression using specific antibodies and representative bands are shown. The blot was reprobed with an antibody to Actin for normalization. […] Small bar indicates standard error (*, p < 0.05; *** p < 0.001).
JHU029 or Cal27 cells (1.5 × 10^6) containing 40% Matrigel were injected subcutaneously into the flank of BALB/c athymic nude mice (7–8 weeks old). When the palpable tumor was developed (>60 mm^3), mice were divided into three groups randomly, 5 mice in each group. The control group was without any treatment. The BME group received 30% (v/v) BME through drinking water. M-I group received 30 mg/kg dose of M-I once in day, every day. Body weight was monitored, and tumor size was measured using a slide caliper and volume was calculated using the formula ½ L × W^2. After animal sacrifice tumors were dissected out and snap frozen in liquid nitrogen for further analysis. All the animal experiments were carried out in accordance NIH guidelines, following a protocol approved (1017) by the Institutional Animal Care and Use Committee (IACUC) of Saint Louis University.

[3] = Pharmacokinetic study, single dose IP or oral gavage; format: in vivo, C57Bl/6 male mice; details: male C57Bl/6 mouse blood
[4] = JHU029 xenograft tumor lysates, Western blot, vs untreated control tumors

SMILES: CC(C)=CC(O)CC(C)[C@H]1CC[C@@]2(C)[C@@H]3[C@@H](O)C=C4[C@@H](CC[C@H](O)C4(C)C)[C@]3(C=O)CC[C@]12C (stereo partly drawn) [M-I, (3S, 7S, 8S, 9R, 10R, 13R, 14S, 17R) 3,7-dihydroxy-17-(4-hydroxy-6-methylhept-5-en-2-yl)-4,4,13,14-tetramethyl-2,3,7,8,10,11, 12,15,16,17-decahydro-1H-cyclopenta[a]phenanthrene-9-carbaldehyde]
- IC50 (Cal27 cells): 7 µg/mL (≈ 14.8 µM)
- IC50 (JHU029 cells): 6.5 µg/mL (≈ 13.8 µM)
- cytotoxic effect on normal oral keratinocytes [1]: minimum effect
- IC50 (JHU022 cells): 17 µg/mL (≈ 36 µM)
- adverse events in PK study ([2]; 20 mg/kg IP): No adverse events
- AUC (%Extrap) ([2]; 20 mg/kg IP, plasma, mean ± SD): 0.33 ± 0.08%
- AUC (%Extrap) ([2]; 20 mg/kg PO, plasma, mean ± SD): 6.84 ± 1.5%
- T½ (elimination half-life) ([2]; 20 mg/kg PO, plasma, mean ± SD): 2.11 ± 0.3 h
- adverse events in PK study ([2]; 20 mg/kg oral gavage, starting four hours post-dose, normal after twenty-four hours): loose stool
- AUC(0-t) ([2]; 20 mg/kg IP, plasma, mean ± SD): 12700 ng·h/mL
- Tmax ([2]; 20 mg/kg IP, plasma, mean ± SD): 1 h
- AUC(0-inf) ([2]; 20 mg/kg IP, plasma, mean ± SD): 12800 ng·h/mL
- AUC(0-t) ([2]; 20 mg/kg PO, plasma, mean ± SD): 643 ng·h/mL
- Tmax ([2]; 20 mg/kg PO, plasma, mean ± SD): 1 ± 0.9 h
- AUC(0-inf) ([2]; 20 mg/kg PO, plasma, mean ± SD): 688 ng·h/mL
- Cmax ([2]; plasma, ip, 20 mg/kg IP, mean ± SD): 18 µM and 8430 ng/mL
- half-life ([2]; plasma, ip, 20 mg/kg IP, plasma, mean ± SD): 0.9 ± 0.02 h
- Cmax ([2]; plasma, po, 20 mg/kg PO, mean ± SD): 500 nM and 214 ng/mL
- half-life ([2]; plasma, po, 20 mg/kg PO, plasma, mean ± SD): 2 h
- effect on high-glucose-induced cell proliferation and collagen synthesis (rat cardiac fibroblasts): inhibitory effects
- c-Met expression in tumors (JHU029 xenograft; [4]): significant reduction
- c-Myc expression in tumors (JHU029 xenograft; [4]): significant reduction
- tumor growth reduction, M-I compared with BME (JHU029 xenograft; JHU029 xenograft, nude mice, M-I 30 mg/kg IP once a day): better effect
- tumor volume (JHU029 xenograft; JHU029 xenograft, nude mice, M-I 30 mg/kg IP once a day or 30% BME in drinking water, to day 32, vs untreated control): significantly reduced
- sudden drop in body weight (JHU029 xenograft; JHU029 xenograft, three out of five mice on Day 20, weight gained back, M-I 30 mg/kg IP once a day): ~ 10%
- stability in mouse blood [3]: stable

Reference: paper PMC8003975 (Cancers, 2021)
